Assay results as given in ChEMBL document CHEMBL1154773, “Thiosemicarbazones from the old to new: iron chelators that are more than just ribonucleotide reductase inhibitors” (J Med Chem, 2009).
Each block holds one compound with its values, some of them ahead of it.

Tests used:
SK-N-MC [1] = assay: Antiproliferative activity against human SK-N-MC cells by MTT assay; format: functional, cell-based
SK-N-MC [2] = assay: Iron chelating activity in human SK-N-MC cells assessed as cellular iron efflux at 25 uM after 3 hrs relative to control; format: functional
[3] = Toxicity in iv dosed CD2F1 hybrid mouse assessed as maximum tolerated dose administered BID at an interval of 6 hrs for 5 days a week over 2 weeks; format: organism-based; conditions: in vivo
M109 [4] = assay: Antitumor activity against mouse M109 cells implanted in CD2F1 hybrid mouse assessed as reduction of tumor weight at 0.4 mg/kg, iv administered 4 days after implantation BID for 5 days measured on day 12 after implantation relative to control; format: functional; parameters: scale not given: the % may be the effect or the level left
SK-MEL-28 = assay: Antitumor activity against human SK-MEL-28 cells implanted in nude mouse assessed as reduction in tumor growth at 0.4 mg/kg/day measured up to 7 weeks relative to control; format: functional; parameters: scale not given: the % may be the effect or the level left
SK-N-MC [5] = assay: cells; conditions: Homo sapiens, 72 h
Description: Antiproliferative activity against human SK-N-MC cells after 72 hrs by MTT assay

SK-N-MC [6] = assay: Effect on iron metabolism in human SK-N-MC cells assessed as cellular iron uptake from transferrin at 25 uM after 3 hrs in presence of pronase relative to control; format: functional
SK-N-MC [7] = assay: Antiproliferative activity against human SK-N-MC cells; format: functional, cell-based
SK-N-MC [8] = assay: Antiproliferative activity against human SK-N-MC cells after 96 hrs by MTT assay; format: functional, cell-based
MRC5 = assay: Antiproliferative activity against human MRC5 cells after 72 hrs by MTT assay; format: cell-based; conditions: MRC5, 72 h
CHP-126 = assay: Antitumor activity against human CHP126 cells at 60 uM after 72 hrs; format: functional
[9] = Antitumor activity against human CHP100 cells at 60 uM after 72 hrs; format: functional
Rattus norvegicus = assay: Iron chelating activity in rat assessed as faecal iron excretion at 25 to 100 mg/kg, po administered as single dose relative to basal level; format: functional, Feces; conditions: dose mg/kg 25-100
M109 [10] = assay: Antitumor activity against mouse M109 cells implanted in CD2F1 hybrid mouse assessed as reduction of tumor weight at 6 mg/kg, iv administered 4 days after implantation BID for 5 days measured on day 12 after implantation relative to control; format: functional; parameters: scale not given: the % may be the effect or the level left

Structure (SMILES): CN(C)C(=S)NN=C(c1ccccn1)c1ccccn1
- Activity (SK-N-MC [2]): 47%
- MTD at 2 weeks [3]: 0.4 mg/kg
- Activity (M109 [4]): 47%
- Activity (SK-MEL-28): 8%
- IC50 (SK-N-MC [5]): 30 nM
- Activity (SK-N-MC [6]): 9%

Structure (SMILES): O=C(N/N=C/c1c(O)ccc2ccccc12)c1ccncc1
- IC50 (SK-N-MC [7]): 300 nM
- IC50 (SK-N-MC [8]): 1000 nM
- IC50 (SK-N-MC [5]): 300 nM

Structure (SMILES): NC(=S)N/N=C/c1c(O)ccc2ccccc12
- IC50 (SK-N-MC [5]): 500 nM
- IC50 (MRC5): > 25000 nM

Structure (SMILES): Cc1ncc(CO)c(/C=N/NC(=O)c2ccncc2)c1O [PYRIDOXAL ISONICOTINOYL HYDRAZONE]
- fold change (FC) (Rattus norvegicus): 8

Structure (SMILES): NC(=S)N/N=C/c1ncccc1N [TRIAPINE]
- MTD at 2 weeks [3]: 6 mg/kg
- Activity (M109 [10]): 10%

Second part, led by results:

- IC50 (SK-N-MC [1]): 1000 nM
Structure (SMILES): O=C(N/N=C/c1ccccn1)c1cccs1

- IC50 (SK-N-MC [1]): 1000 nM
Structure (SMILES): O=C(N/N=C(\c1ccccc1)c1ccccn1)c1ccccc1

- IC50 (SK-N-MC [7]): 22000 nM
- IC50 (SK-N-MC [5]): 5000 nM
Structure (SMILES): CC(=O)N(O)CCCCCNC(=O)CCC(=O)N(O)CCCCCNC(=O)CCC(=O)N(O)CCCCCN [DEFEROXAMINE]
- Activity (CHP-126): 80%
- Activity [9]: 80%
